Experimental data from ChEMBL document CHEMBL1201862, “PubChem BioAssay data set” (2004).
Activity calls are given as the source filed them.

Key:
[1] = target: G-protein coupled receptor 55 (Homo sapiens, UniProt Q9Y2T6); assay: inhibition of LPI-stimulated GPR55 beta-arrestin translocation – imaging, U2OS, beta-arrestin-GFP, LPI agonist, primary screen (AID 2013); assay type: functional;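 further: antagonist potency measured as reduced agonist-driven arrestin aggregation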
Streptococcus = assay: GAS UMAA2166 growth inhibition – luminescence, BacTiterGlo, counter-screen for streptokinase expression inhibitor project, dose response (AID 1915); assay type: functional, organism-based;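 further: potency for reduction of bacterial viability or growth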
Large T antigen = Large T antigen (Simian virus 40, UniProt P03070); assay type: functional, Betapolyomavirus macacae;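 further: Confirmatory-stage PubChem screen for compounds that inhibit SV40 T antigen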
Chain of Large T antigen (P03070 whole entry): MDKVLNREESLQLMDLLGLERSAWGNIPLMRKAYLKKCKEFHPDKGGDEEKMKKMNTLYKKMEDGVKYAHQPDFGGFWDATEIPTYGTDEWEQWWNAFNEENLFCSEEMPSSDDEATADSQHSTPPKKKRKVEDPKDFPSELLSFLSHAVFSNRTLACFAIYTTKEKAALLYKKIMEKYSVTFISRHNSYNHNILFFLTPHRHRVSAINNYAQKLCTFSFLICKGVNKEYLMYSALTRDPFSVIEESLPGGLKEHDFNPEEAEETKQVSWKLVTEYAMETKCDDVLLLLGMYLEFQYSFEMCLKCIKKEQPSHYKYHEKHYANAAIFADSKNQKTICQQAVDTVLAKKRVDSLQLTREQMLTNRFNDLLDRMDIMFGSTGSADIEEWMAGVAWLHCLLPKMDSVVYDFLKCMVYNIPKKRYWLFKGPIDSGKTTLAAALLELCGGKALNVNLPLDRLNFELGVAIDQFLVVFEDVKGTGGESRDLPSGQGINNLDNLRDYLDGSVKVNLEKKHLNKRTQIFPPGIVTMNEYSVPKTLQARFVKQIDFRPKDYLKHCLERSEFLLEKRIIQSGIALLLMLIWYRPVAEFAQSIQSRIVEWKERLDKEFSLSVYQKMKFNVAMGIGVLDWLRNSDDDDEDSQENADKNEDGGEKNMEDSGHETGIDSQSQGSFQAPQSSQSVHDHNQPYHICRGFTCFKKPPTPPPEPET

[2] = target: DNA dC->dU-editing enzyme APOBEC-3G (Homo sapiens, UniProt Q9HC16); assay: Dose Response confirmation of small molecule APOBEC3G DNA Deaminase Inhibitors via a fluorescence-based single-stranded DNA deaminase assay. [Related pubchem assays (depositor defined):AID493012, AID493028]; assay type: functional
Chain of DNA dC->dU-editing enzyme APOBEC-3G (Q9HC16 whole entry): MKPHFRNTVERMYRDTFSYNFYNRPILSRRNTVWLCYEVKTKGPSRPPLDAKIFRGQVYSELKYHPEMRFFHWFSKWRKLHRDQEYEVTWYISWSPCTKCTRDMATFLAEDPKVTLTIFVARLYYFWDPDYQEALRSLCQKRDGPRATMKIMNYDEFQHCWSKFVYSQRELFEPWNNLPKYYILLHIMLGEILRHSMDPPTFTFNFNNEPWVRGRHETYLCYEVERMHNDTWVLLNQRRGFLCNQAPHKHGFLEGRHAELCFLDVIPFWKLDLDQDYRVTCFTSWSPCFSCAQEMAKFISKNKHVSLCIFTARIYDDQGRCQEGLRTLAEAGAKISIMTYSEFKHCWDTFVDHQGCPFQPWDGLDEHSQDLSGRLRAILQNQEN

Insulin-degrading enzyme = Insulin-degrading enzyme (Homo sapiens, UniProt P14735); assay: Dose Response: Fluorescence polarization-based cell-based high throughput dose response assay for inhibitors of insulin-degrading enzyme (IDE). [Related pubchem assays: 434962 (Primary screen (IDE inhibitors in singlicate)), 449730 (Counterscreen (Cytotoxicity in triplicate)), 435028 (Confirmation (IDE inhibitors in triplicate)), 434984 (Summary …; assay type: functional
Chain of Insulin-degrading enzyme (P14735 whole entry): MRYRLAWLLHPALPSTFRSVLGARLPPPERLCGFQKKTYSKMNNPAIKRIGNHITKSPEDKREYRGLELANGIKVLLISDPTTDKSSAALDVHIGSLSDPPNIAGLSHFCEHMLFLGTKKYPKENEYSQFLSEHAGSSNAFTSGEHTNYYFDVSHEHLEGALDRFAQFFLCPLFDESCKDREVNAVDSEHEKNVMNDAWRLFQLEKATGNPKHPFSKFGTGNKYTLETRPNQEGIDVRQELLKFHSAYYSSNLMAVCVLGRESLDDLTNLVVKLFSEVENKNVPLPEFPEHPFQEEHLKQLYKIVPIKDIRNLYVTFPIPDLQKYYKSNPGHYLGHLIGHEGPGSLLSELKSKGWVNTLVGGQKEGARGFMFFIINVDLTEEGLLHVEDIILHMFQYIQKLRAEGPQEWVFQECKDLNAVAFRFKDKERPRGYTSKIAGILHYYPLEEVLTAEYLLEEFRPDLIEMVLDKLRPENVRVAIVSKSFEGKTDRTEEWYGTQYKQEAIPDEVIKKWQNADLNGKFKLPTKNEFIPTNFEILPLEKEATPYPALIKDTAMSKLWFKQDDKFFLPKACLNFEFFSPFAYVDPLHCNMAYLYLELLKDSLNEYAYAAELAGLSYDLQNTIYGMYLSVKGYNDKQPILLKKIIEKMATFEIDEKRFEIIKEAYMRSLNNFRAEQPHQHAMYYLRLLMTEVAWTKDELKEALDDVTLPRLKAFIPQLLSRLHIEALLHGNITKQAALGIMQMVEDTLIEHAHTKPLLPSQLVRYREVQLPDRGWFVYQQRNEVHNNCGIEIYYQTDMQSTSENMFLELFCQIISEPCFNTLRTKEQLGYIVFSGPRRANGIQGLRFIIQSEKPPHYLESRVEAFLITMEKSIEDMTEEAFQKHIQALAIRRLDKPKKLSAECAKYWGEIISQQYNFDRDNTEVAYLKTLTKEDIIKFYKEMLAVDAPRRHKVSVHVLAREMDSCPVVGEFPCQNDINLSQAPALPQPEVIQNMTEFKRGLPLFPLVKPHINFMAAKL

Phosphomannomutase 2 = target: T1, Phosphomannomutase 2 (Homo sapiens, UniProt O15305); assay: Counter screen SAR assay for PMM2 inhibitors via a fluorescence intensity assay. [Related pubchem assays (depositor defined):AID1545, AID1574]
T1 sequence (O15305 whole entry): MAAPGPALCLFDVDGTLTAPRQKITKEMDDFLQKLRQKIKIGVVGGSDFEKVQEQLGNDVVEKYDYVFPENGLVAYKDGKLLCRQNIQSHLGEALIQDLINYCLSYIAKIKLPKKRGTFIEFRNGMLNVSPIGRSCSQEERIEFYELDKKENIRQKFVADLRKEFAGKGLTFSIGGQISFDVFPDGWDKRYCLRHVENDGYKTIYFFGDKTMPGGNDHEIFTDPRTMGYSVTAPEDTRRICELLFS

[3] = target: T2, Phosphoethanolamine/phosphocholine phosphatase (Homo sapiens, UniProt Q8TCT1); assay: SAR assay for compounds that inhibit PHOSPHO1. [Related pubchem assays (depositor defined):AID1545, AID1565, AID1574]
T2 sequence (Q8TCT1 whole entry): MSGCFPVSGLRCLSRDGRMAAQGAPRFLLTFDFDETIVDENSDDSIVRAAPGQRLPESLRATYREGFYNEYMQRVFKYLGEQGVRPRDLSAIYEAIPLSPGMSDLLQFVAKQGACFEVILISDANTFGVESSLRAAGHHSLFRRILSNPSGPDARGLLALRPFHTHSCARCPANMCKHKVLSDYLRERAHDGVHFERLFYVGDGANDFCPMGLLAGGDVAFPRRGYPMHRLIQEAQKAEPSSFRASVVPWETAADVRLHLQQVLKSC

[4] = system: Streptococcus sp. 'group A'; assay: Streptococcus pyogenes SK(-)GAS viability under kanamycin – luminescence, BacTiterGlo, confirmation, counter-screen for streptokinase expression inhibitor project, dose response (AID 1900); assay type: functional, organism-based
[5] = target: T3, Mannose-6-phosphate isomerase (Homo sapiens, UniProt P34949); assay: phosphomannose isomerase inhibition – biochemical, fluorescence intensity, confirmation (AID 1535)
T3 sequence (P34949 whole entry): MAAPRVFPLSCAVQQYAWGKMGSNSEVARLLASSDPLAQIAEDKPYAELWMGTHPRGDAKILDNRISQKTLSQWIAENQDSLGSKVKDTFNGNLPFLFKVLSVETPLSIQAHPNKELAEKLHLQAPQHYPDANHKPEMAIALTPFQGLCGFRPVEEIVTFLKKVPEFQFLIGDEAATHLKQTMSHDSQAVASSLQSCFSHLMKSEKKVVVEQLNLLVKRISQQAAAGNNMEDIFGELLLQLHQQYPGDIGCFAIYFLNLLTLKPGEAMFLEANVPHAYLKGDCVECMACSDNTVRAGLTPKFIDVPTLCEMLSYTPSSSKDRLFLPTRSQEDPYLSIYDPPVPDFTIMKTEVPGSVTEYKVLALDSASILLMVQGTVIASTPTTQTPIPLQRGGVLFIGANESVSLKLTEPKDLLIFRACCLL

Streptokinase A = target: T4, Streptokinase A (Streptococcus pyogenes serotype M1, UniProt P10520); assay: viability-normalized secreted streptokinase activity reduction – plasminogen activation absorbance, OD405, dose response (AID 1914); assay type: functional, Streptococcus pyogenes M1 GAS;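 further: secreted streptokinase activity via plasminogen activation per viability signal from cell pellet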
T4 sequence (P10520 whole entry): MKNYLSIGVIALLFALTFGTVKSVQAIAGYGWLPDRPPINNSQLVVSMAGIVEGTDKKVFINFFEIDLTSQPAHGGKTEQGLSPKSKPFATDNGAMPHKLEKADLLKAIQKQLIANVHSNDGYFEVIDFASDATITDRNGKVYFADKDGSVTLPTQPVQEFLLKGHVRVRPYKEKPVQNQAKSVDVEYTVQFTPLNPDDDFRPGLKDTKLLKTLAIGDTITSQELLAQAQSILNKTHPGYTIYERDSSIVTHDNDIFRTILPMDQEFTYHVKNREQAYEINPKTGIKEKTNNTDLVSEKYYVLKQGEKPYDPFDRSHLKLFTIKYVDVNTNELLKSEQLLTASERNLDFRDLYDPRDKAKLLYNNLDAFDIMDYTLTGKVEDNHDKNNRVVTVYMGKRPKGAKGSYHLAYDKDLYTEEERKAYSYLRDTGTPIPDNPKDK

[6] = Counterscreen for IDE inhibitors: Luminescence-based cell-based high throughput dose response assay to identify compounds that are cytotoxic to HEK cells. [Related pubchem assays: 434962 (Primary screen (IDE inhibitors in singlicate)), 449730 (Counterscreen (Cytotoxicity in triplicate)), 435028 (Confirmation (IDE inhibitors in triplicate)) …; assay type: functional; settings: HEK293
[7] = target: Eukaryotic translation initiation factor 4E (Mus musculus, UniProt P63073); assay: blockers of eIF4G binding by eIF4E – biochemical, TR-FRET, dose response (AID 855); assay type: functional;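 further: potency for disrupting eIF4E binding to eIF4GI seen as loss of FRET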
Chain of Eukaryotic translation initiation factor 4E (P63073 whole entry): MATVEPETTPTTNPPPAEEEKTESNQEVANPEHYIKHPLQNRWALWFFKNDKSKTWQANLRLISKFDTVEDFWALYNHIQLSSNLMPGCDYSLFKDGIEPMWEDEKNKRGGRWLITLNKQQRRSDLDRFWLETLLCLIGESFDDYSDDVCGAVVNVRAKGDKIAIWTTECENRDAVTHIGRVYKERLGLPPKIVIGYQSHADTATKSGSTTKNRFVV

[8] = target: DNA dC->dU-editing enzyme APOBEC-3A (Homo sapiens, UniProt P31941); assay: A3A deaminase inhibition for selectivity – biochemical, dose response (AID 504722); assay type: functional
Chain of DNA dC->dU-editing enzyme APOBEC-3A (P31941 whole entry): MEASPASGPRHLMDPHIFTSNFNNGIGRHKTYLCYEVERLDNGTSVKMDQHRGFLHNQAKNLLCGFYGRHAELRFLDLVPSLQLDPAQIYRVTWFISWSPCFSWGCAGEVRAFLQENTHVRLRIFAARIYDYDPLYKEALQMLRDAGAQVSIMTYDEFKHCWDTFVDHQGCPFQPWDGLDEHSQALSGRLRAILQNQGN

Bcl-2-like protein 10 = Bcl-2-like protein 10 (Homo sapiens, UniProt Q9HD36); assay: Bcl-B/TR3 peptide binding disruption – biochemical, fluorescence polarization, FITC-TR3 peptide, selectivity assay for Bfl-1 inhibitor project, primary screen (AID 748);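 further: fluorescence polarization from a fluorescein-labelled TR3 peptide binding purified Bcl-B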
Chain of Bcl-2-like protein 10 (Q9HD36 whole entry): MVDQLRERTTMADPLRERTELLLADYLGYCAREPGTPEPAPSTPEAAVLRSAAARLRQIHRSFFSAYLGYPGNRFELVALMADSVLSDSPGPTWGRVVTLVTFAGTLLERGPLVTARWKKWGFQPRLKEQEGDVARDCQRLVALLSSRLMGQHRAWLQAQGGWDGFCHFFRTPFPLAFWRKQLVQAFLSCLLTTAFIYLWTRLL

CAAX prenyl protease 2 = CAAX prenyl protease 2 (Saccharomyces cerevisiae S288c, UniProt Q03530); assay type: biochemical
Chain of CAAX prenyl protease 2 (Q03530 whole entry): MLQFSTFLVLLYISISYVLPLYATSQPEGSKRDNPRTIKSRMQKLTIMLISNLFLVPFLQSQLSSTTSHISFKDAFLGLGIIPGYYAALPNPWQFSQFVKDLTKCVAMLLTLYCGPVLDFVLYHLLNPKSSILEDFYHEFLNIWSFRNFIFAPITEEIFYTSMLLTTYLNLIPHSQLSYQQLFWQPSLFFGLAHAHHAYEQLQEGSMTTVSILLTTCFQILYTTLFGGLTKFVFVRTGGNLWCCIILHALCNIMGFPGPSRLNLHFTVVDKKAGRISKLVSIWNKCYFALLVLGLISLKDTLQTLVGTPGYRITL

HeLa = assay: ATP-based viability loss in HeLa cells – cell-based, CellTiter-Glo luminescence, cherry-pick samples, cytotoxicity control for MITF activator project, dose response (AID 540259); assay type: functional; settings: Homo sapiens
[9] = target: T5, Nuclear receptor subfamily 0 group B member 1 (Homo sapiens, UniProt P51843); assay type: functional, cell-based;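 further: HEK293T cells transfected with SF-1 and DAX-1 plus StAR promoter luciferase reporter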
T5 sequence (P51843 whole entry): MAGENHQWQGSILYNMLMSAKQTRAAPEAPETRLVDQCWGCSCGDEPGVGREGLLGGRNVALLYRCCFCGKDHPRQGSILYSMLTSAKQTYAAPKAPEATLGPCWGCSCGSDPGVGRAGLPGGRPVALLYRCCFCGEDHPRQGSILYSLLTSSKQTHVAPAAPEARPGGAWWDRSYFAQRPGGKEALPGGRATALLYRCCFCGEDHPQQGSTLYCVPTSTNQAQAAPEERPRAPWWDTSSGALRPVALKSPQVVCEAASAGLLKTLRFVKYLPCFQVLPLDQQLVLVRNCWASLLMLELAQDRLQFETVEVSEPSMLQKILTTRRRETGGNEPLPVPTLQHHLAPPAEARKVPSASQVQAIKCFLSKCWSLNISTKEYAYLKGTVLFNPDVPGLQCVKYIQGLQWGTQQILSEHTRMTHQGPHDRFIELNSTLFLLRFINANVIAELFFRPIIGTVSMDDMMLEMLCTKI

cells = assay type: functional, cell-based

Chain of G-protein coupled receptor 55 (Q9Y2T6 whole entry): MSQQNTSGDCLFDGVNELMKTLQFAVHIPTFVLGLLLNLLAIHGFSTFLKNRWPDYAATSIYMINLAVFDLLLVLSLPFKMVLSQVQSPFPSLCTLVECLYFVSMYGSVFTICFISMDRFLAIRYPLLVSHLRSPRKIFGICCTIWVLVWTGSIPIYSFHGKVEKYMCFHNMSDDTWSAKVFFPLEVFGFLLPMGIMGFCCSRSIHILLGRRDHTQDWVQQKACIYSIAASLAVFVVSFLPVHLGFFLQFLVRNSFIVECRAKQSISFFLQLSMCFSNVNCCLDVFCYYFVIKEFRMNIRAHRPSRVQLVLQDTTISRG

COc1ccc(N(CC(=O)Nc2nc3ccc(C)cc3s2)S(=O)(=O)c2c(C)nn(C)c2C)cc1
IC50 [1]: 2.04 µM (active)

O=c1c2ccccc2sn1-c1cc(S(=O)(=O)N2CCOCC2)ccc1N1CCOCC1
EC50 (Streptococcus): > 150 µM (not active)
IC50 (Large T antigen): 13.2 µM (active)
IC50 [2]: 14 µM (active)
IC50 (Insulin-degrading enzyme): 1.44 µM (active)
IC50 (Phosphomannomutase 2): 9.87 µM (active)
IC50 [3]: 1.27 µM (inactive)
EC50 [4]: 10.2 µM (active)
IC50 [5]: 2.6 µM (active)
EC50 (Streptokinase A): > 150 µM (not active)
IC50 [6]: 11 µM (not active)
IC50 [7]: 5.36 µM (active)
IC50 [8]: > 100 µM (inactive)

COc1ccc(NC(=O)C2CCN(c3nc(C)nc4c3CCC4)CC2)cc1
IC50 (Bcl-2-like protein 10): 33.8 µM (active)

COc1ccc(NS(=O)(=O)c2ccc3oc(=O)c4[nH]c(=O)c(=O)n(C)c4c3c2)cc1
AC50 (CAAX prenyl protease 2): 22.7 µM (active)

c1ccc(-c2nc(-c3nccc4ccccc34)oc2-c2ccccc2)cc1
EC50 (Streptococcus): > 150 µM (not active)
AC50 (HeLa): 132 µM (active)
EC50 [4]: > 150 µM (not active)
EC50 (Streptokinase A): 5.23 µM (active)
IC50 [9]: > 67.5 µM (inactive)
IC50 [1]: 3.48 µM (active)
IC50 (cells): > 67.5 µM (inactive)
